Columns and labels:
Assay type in all cases: in vivo
[1] = IV cassette pharmacokinetic study in male Sprague-Dawley rats (Saint Louis University); settings: plasma; male Sprague-Dawley rat, 1 mg/kg IV cassette, sampling to 24 h; read-out: plasma t½ after 1 mg/kg IV bolus dose in rat (converted)
Procedure: (§1) A minimally sufficient volume of dimethylsulfoxide (DMSO) was added to each test compound to achieve solubilization. For intravenous (IV) delivery, compounds were then formulated as solutions in glycerol formal: saline (either 20:80 or 40:60 v/v) (Sigma Chemicals, St. Louis). For oral (PO) administration, compounds were formulated with 0.5% methylcellulose. Five to six compound solutions were combined into a singled mixed solution for IV and PO cassette administration with final DMSO concentrations <0.6% or <1.2%, for the IV and PO cassettes, respectively. Analytes were detected in test samples using an LC/MS/MS (liquid chromatography/mass spectrometry) system consisting of an LC-20AD pump (Shimadzu, Kyoto, Japan), an HTC PAL autosampler (Leap technologies, Carrboro, N.C.), and a Sciex API-4000 mass spectrometer in ESI mode (AB Sciex, Foster City, Calif.). An Amour C18 reverse phase column (Analytical Sales and Services, Pompton Plains, N.J.) was used for chromatographic separation.
(§2) Pharmacokinetic (PK) studies conducted at Saint Louis University used male Sprague-Dawley rats with an initial body weight of 200 to 220 g. IV PK studies were performed with the following compounds: Examples 1-3 and 5-17 and comparison compounds C12-C18, C29, and C30. Animals were allowed free access to food and water. Rats were individually housed and connected to jugular vein catheters. Each cassette formulation was administered intravenously to two rats (1 mL/kg body weight). Each cassette formulation contained 5-6 compounds at 1 mg/kg in either 20:80 or 40/60 glycerol formal/saline (v/v). Blood was collected manually via the catheter into lithium-heparin tubes at 0.017, 0.083, 0.5, 1, 2, 4, 6 and 24 hours post-dose. Animals were euthanized with CO2 at the end of the experiment.
(§3) Internal standard was added to all samples at 200 ng/mL (final), as well as 150 μL of acetonitrile. Plasma samples (50 μL total volume) were diluted with control nave rat plasma as appropriate to bring the sample measurement into the linear dynamic range of the standard curve. The samples were capped and mixed on a multi-plate vortexer for 5 minutes and centrifuged for 5 minutes at 3200 rmp. The supernant was transferred to 96-well sample plate and capped for LC/MS/MS analysis. Compounds were optimized and monitored for their respective MRM transitions. The mobile phases consisted of 0.1% formic acid (aqueous) and 100% acetonitrile (organic) with an Amour C18 reverse phase column (2.1×30 mm, 5 micron) at a flow rate of 0.35 mL/min. The starting phase was 10% acetonitrile for the 0.9 minutes then increased to 90% acetonitrile over 0.4 minutes, and was maintained for an additional 0.2 minutes before returning to 10% acetonitrile over 0.4 minutes. The 10% acetonitrile was held for an additional 1.6 minutes. Peak areas were integrated using Analyst 1.5.1 (AB Sciex, Foster City, Calif.).

[2] = Oral (PO) cassette pharmacokinetic study in male Sprague-Dawley rats; settings: plasma; male Sprague-Dawley rat, 2 mg/kg oral gavage cassette in 0.5% methylcellulose; read-out: AUC (0-inf) after a 2 mg/kg PO dose in rat
Procedure: as §1, §2
Oral PK studies were conducted with the following compounds: Examples 1-3 and 5-17 and comparison compounds C12, C14-16 and C29-30. The PO cassette formulations were administered via oral gavage to two rats (10 mL/kg body weight) containing 5-6 compounds per cassette. The oral dose was administered at 2 mg/kg/compound in 0.5% methylcellulose. Blood collection time points were 0.25, 0.5, 1, 2, 4, 6 and 24 hours post-dose into lithium-heparin tubes. Animals were euthanized with CO2 at the end of the experiment.
as §3

[3] = IV cassette pharmacokinetic study in female Sprague-Dawley rats (PRESCOS, LLC); settings: plasma; female Sprague-Dawley rat, 1 mg/kg IV cassette, sampling to 8 h (PRESCOS); read-out: plasma t½ after 1 mg/kg iv bolus dose in rat (converted)
Procedure: Similar rat PK studies were conducted by PRESCOS, LLC (San Diego, Calif.) for comparison compounds C19-C28. Female Sprague-Dawley rats with an initial body weight of 195 to 220 g were used. Cassette formulations with 1 mg/kg/compound in 40/60 glycerol formal/saline were administered intravenously to three rats. The dosing volume for each animal was 5 mL/kg body weight. Blood samples were collected via a jugular vein catheter at 0.017, 0.25, 0.5, 1, 2, 4 and 8 hours post-dose into K2EDTA tubes. Animals were euthanized with CO2 at the end of the experiment. Sample processing and compound measurement by LC/MS/MS was performed by HT Laboratories (San Diego, Calif.).

| SMILES | half-life [1] [min] | AUC(0-inf) [2] [ng·h/mL] | half-life [3] [min] |
| --- | --- | --- | --- |
| CC(C)(C)c1cc(Br)cc([C@H](CC(=O)O)NC(=O)CNC(=O)c2cc(O)cc(NC3=NCC(O)CN3)c2)c1 (stereo partly shown) [Example C12, reference compound] | 30 | 205 | – |
| CC(C)(C)c1cc(Br)c(O)c([C@H](CC(=O)O)NC(=O)CNC(=O)c2cc(O)cc(NC3=NCC(O)CN3)c2)c1 (stereo partly shown) [Example C13, reference compound] | 66 | – | – |
| CC(C)(O)c1cc(Cl)cc([C@H](CC(=O)O)NC(=O)CNC(=O)c2cc(O)cc(NC3=NCC(O)CN3)c2)c1 (stereo partly shown) [Example C16, reference compound] | 96 | 62 | – |
| CC(C)(C)c1cc(Br)cc([C@H](CC(=O)O)NC(=O)CNC(=O)c2cccc(NC(=N)N)c2)c1 [Example C17, reference compound] | 48 | – | – |
| CC(C)(C)c1cc(Br)cc([C@H](CC(=O)O)NC(=O)CNC(=O)c2cccc(NC3=NCCN3)c2)c1 [Example C18, reference compound] | 72 | – | – |
| CC(C)(C#N)c1cc(Br)cc([C@H](CC(=O)O)NC(=O)CNC(=O)c2cc(O)cc(NC3=NCC(O)CN3)c2)c1 (stereo partly shown) [Example C19] | – | – | 25.8 |
| O=C(O)C[C@H](NC(=O)CNC(=O)c1cc(O)cc(NC2=NCC(O)CN2)c1)c1cc(Cl)cc(C2(CF)CCOCC2)c1 (stereo partly shown) [Example C22] | – | – | 18 |
| CC(C)(c1cc(Cl)cc([C@H](CC(=O)O)NC(=O)CNC(=O)c2cc(O)cc(NC3=NCC(O)CN3)c2)c1)C(F)(F)F (stereo partly shown) [Example C23] | – | – | 12.6 |
| CC(O)(c1cc(Cl)cc([C@H](CC(=O)O)NC(=O)CNC(=O)c2cc(O)cc(NC3=NCC(O)CN3)c2)c1)C(F)(F)F (stereo partly shown) [Example C24] | – | – | 16.8 |
| N#CC1(c2cc(Cl)cc([C@H](CC(=O)O)NC(=O)CNC(=O)c3cc(O)cc(NC4=NCC(O)CN4)c3)c2)CCC1 (stereo partly shown) [Example C25] | – | – | 13.8 |
| CC(O)(c1cc([C@H](CC(=O)O)NC(=O)CNC(=O)c2cc(O)cc(NC3=NCC(O)CN3)c2)cc(C(F)(F)F)c1)C(F)(F)F (stereo partly shown) [Example C27] | – | – | 12.6 |
| O=C(O)C[C@H](NC(=O)CNC(=O)c1cc(O)cc(NC2=NCC(O)CN2)c1)c1ccccc1 (stereo partly shown) [Example C29, reference compound] | < 4.8 | < 1 | – |
| NC(=O)c1cc(Cl)cc([C@H](CC(=O)O)NC(=O)CNC(=O)c2cc(O)cc(NC3=NCC(O)CN3)c2)c1 (stereo partly shown) [Example C30, reference compound] | 96 | < 1 | – |

Continued, values first:

| half-life [1] [min] | AUC(0-inf) [2] [ng·h/mL] | half-life [3] [min] | SMILES |
| --- | --- | --- | --- |
| 60 | 224 | – | CC(C)(C)c1cc(Br)cc([C@H](CC(=O)O)NC(=O)CNC(=O)c2cc(O)cc(NC3=NCC(O)CN3)c2)c1O (stereo partly shown) [Example C14, reference compound] |
| 36 | 87 | – | CC(C)(O)c1cc(Br)cc([C@H](CC(=O)O)NC(=O)CNC(=O)c2cc(O)cc(NC3=NCC(O)CN3)c2)c1 (stereo partly shown) [Example C15, reference compound] |
| – | – | 22.8 | CC(C)(C)c1cc(C#N)cc([C@H](CC(=O)O)NC(=O)CNC(=O)c2cc(O)cc(NC3=NCC(O)CN3)c2)c1 (stereo partly shown) [Example C20] |
| – | – | 90 | CC(C)(O)c1cc([C@H](CC(=O)O)NC(=O)CNC(=O)c2cc(O)cc(NC3=NCC(O)CN3)c2)cc(C(F)(F)F)c1 (stereo partly shown) [Example C21] |
| – | – | 15 | N#CC1(c2cc(Cl)cc([C@H](CC(=O)O)NC(=O)CNC(=O)c3cc(O)cc(NC4=NCC(O)CN4)c3)c2)CCOCC1 (stereo partly shown) [Example C26] |
| – | – | 18 | O=C(O)C[C@H](NC(=O)CNC(=O)c1cc(O)cc(NC2=NCC(O)CN2)c1)c1cc(Br)cc(C2(C(F)F)CC2)c1 (stereo partly shown) [Example C28] |

Reference: patent US10035778B2, “Meta-azacyclic amino benzoic acid derivatives as pan integrin antagonists” (Saint Louis University, priority 2015, dated 2018)
